Data published in US20050170345A1, “Neuroglobin is up-regulated by and protects neurons from hypoxic-ischemic injury” (priority 2001, published 2005).
“Also recorded” adds a separate entry of the source. Read-outs that look alike come from different tables or passages of the source. {Fluorescein} = fluorescein label

Assays:
[1] = tested on: 17-20 kDa caspase-3 cleavage product; test: Caspase-3 cleavage product immunofluorescence in ODN-transfected cortical neurons; type: cell-based, mouse; conditions: fluorescence microscopy, hypoxic cortical neurons
Description: Cultures were fixed with 4% paraformaldehyde and incubated over night at 4° C. with one or more of the following primary antibodies: rabbit polyclonal anti-Ngb (1:200), mouse monoclonal anti-NeuN (1:200, Chemicon), and rabbit polyclonal anti-17-20 kDa caspase-3 cleavage product (1:100, New England Biolabs). The secondary antibodies (all 1:200) were fluorescein isothiocyanate-conjugated goat anti-rabbit or anti-mouse IgG (Vector) and rhodamine-conjugated donkey anti-rabbit IgG (Jackson ImmunoResearch). Controls for non-specific binding included omitting primary (FIG. 1C) or secondary antibodies. In addition, in some cultures, nuclei were labeled with 4′,6-diamidino-2-phenylindole (DAPI) or DNA strand breaks were labeled with the Klenow fragment of DNA polymerase I (Roche) followed by rhodamine avidin D (Vector), as described (Jin et al. (1999) J Neurochem 72: 1204-1214). Fluorescence signals were detected with a Nikon E800 epifluorescence microscope using excitation/emission wavelengths of 535/565 nm for rhodamine (red), 470/505 nm for fluorescein isothiocyanate (green) and 360/400 nm for DAPI (blue). Results were recorded with a Magnifire digital color camera (Optronics). […]

Ngb protein = Ngb protein expression in HN33 cells (Western blot); type: cell-based, mouse; conditions: HN33 cells; for effect on induction of Ngb expression by hemin (Western blot): 1 h pretreatment then 50 μM hemin 24 h, LY83583 1 μM, KT5823 8 μM, GF109203X 10 μM, PD98059 20 μM
Description: (§1) HN33 cells were cultured as described (Lee et al. (1990) J Neurosci. 10: 1779-1787; Shi et al. (1998) J Neurochem., 70:1035-1044; Jin et al. (2000) Proc Nati Acad Sci USA., 97:10242-10247). Cells were plated at 4×10^5 cells/well onto uncoated, 6-well plastic culture dishes in Dulbecco's modified Eagle's medium containing 10% (v/v) fetal bovine serum, 100 units/ml of penicillin and 100 μg/ml of streptomycin, and maintained at 37° C. in humidified 95% air/5% CO2. Cells were treated with hemin (typically 50 μM) or 8-Br-cGMP (10 μM) for up to 3 days, without daily replacement. To suppress sGC or PKG activity, cells were pretreated for 1 hour with inhibitors before adding other reagents.
(§2) Cells were washed twice in PBS, and whole-cell extracts were prepared by adding 10 volumes of 1× sample buffer containing 2% SDS, 100 mM dithiothreitol, 60 mM Tris (pH 6.8) and 10% glycerol, and boiled for 5 minutes. Protein concentrations were determined using Bradford Protein Assays (Bio-Rad, Hercules, Calif.); 30 μg of protein was analyzed by 12% or 15% SDS-PAGE and transferred to Immuno-Blot PVDF membranes (Bio-Rad). Membranes were probed with affinity-purified anti-Ngb antibody, which was produced by immunizing with a synthetic peptide corresponding to amino-acids 35-50 (NH2-CLSSPEFLDHIRKVML-COOH, (SEQ ID NO:11) of mouse Ngb (Sun et aL (2001 Proc Natl Acad Sci USA. 98:15306-15311),and the signal was detected with Boehringer Mannheim chemiluminescence blotting kits. Differences in protein expression on Western blots were quantified using a GS-710 calibrated imaging densitometer and Quantity One software (Bio-Rad).

[2] = tested on: vascular endothelial growth factor; conditions: aortic smooth muscle cells; cited from earlier work
Ngb mRNA = Ngb mRNA expression in HN33 cells (RT-PCR, quantitative RT-PCR, Northern blot); type: cell-based, mouse; conditions: HN33 cells; for effect on hemin-induced Ngb expression at the mRNA level (quantitative RT-PCR): 1 h pretreatment then 50 μM hemin 24 h, LY83583 1 μM, KT5823 8 μM
Description: as §1
RT-PCR and Northern blot analyses were carried out as described previously (Zhu and Zhang (1999) Biochem Biophys Res Commun., 258:87-93). Briefly, total RNA from treated and untreated cells was extracted using a RNeasy Mini Kit (QIAGEN Operon, Valencia, Calif.), and DNA-free total RNA (2 μg per sample) was reverse-transcribed into first-strand cDNA using the Reverse Transcription System and Oligo-dT12-18 (GIBCO-BRL, Rockville, Md.) (Id.). Sequences of the primers used for PCR amplification were: Ngb forward, 5′ CTCTGGAACATGGCACTGTC 3′ (nt 135-154, SEQ ID NO:7); Ngb reverse, 5′ GCACTGGCTCGTCTCTTACT 3′ (nt 547-528, SEQ ID NO:8); β-actin forward, 5′ CACAGGCATTGTGATGGACTC 3′ (nt 524-544, SEQ ID NO:9); β-actin reverse, 5′ GCTCAGGAGGAGCAATGATCT 3′ (nt 582-563, (SEQ ID NO:10). Primers were designed based on the published sequences of these genes and were synth esized by QIAGEN Operon. All PCR primer pairs gave rise to only one discrete band of the expected size. PCR reactions were carried out in a total volume of 25 μl containing 2 μl cDNA, 1×PCR buffer (Boehringer Mannheim, Mannheim, FRG), 200 μM dNTPs, 0.6 U Taq DNA polymerase (Boehringer Mannheim), and 0.2 μM primers. The optimal conditions for amplification (temperature and cycle number) were determined experimentally according to previously published procedures (Id.). Different ratios of Ngb to b-actin primer pairs were tested to ensure that Ngb and b-actin were amplified with similar efficiency, and a kinetic study was undertaken to establish the number of cycles sufficient to detect both Ngb and b-actin without reaching saturation for either. The parameters chosen for PCR amplification were 95° C. for 1 minute, 57° C. for 45 seconds, 72° C. for 1 minute for 25-30 cycles, and a final incubation at 72° C. for 10 minutes. PCR products were separated on 1.2% agarose gels, visualized by ethidium bromide staining, and quantified using a ChemiImage System (Alpha Innotech Corporation, San Leandro, Calif.).
For Northern blotting, 15 μg of total RNA from each sample was fractionated on 1% formaldehyde/agarose gels and transferred to Hybond-N nylon membranes (Amersham Pharmacia, Piscataway, N.J.). Filters were hybridized with probes for Ngb MRNA, and β-actin mRNA at 68° C. in hybridization buffer (Clontech, Palo Alto, Calif.). ^32P-radiolabeled DNA probes were synthesized using cDNA obtained from RT-PCR amplification.
Quantitative RT-PCR analysis was carried out as described previously.8 PCR reactions were carried out in a total volume of 25 μl containing 1 μI cDNA, 1×PCR buffer (Boehringer Mannheim), 200 μM dNTPs, 0.6 U Taq DNA polymerase (Boehringer Mannheim), two pairs of primers (one pair for the Ngb gene, another for the b-actin gene used as an internal control). The optimal conditions for amplification (the proportion between the two pairs of primers, temperatures, and cycle numbers) were determined experimentally according to previously established procedures.8 PCR products were separated on 1.2% agarose gels, visualized by ethidium bromide staining, and quantified using a ChemiImage System (Alpha Innotech Corporation).

Ngb [3] = test: Ngb expression in cultured cortical neurons treated with hypoxia mimetics or other stressors (Western blot); type: cell-based, mouse
Ngb [4] = test: Hypoxia-induced Ngb expression in HN33 cells pretreated with protein kinase inhibitors (Western blot); type: cell-based, mouse; conditions: inhibitor 1 hour then hypoxia (95% N2/5% CO2) 20 hours
Description: FIGS. 10A and 10B show the effects of protein kinase inhibitors on hypoxia-induced Ngb expression. HN33 cells were treated with protein kinase inhibitors at the indicated concentrations for 1 hour, and then exposed to hypoxia (95% N2/5% CO2) for 20 hours. Western blotting was used to detect Ngb protein expression (FIG. 10A), which was quantified by computer densitometry (FIG. 10B). Data are representative blots (top) or means±SEM (bottom) from 3 experiments. *P<0.05 for drug treatment relative to hypoxia alone.
as §2

5′-ATG GAG CGC CCG GA-3′ (sense ATGGAGCGCCCGGA; DNA, 5' {Fluorescein}, backbone and methylation of C not given here) [sense ODN]
transfected cells co-expressing the 17-20 kDa caspase-3 cleavage product [1]: few

Nc1nc2c(nc(Br)n2[C@@H]2O[C@@H]3COP(=O)(O)O[C@H]3[C@H]2O)c(=O)[nH]1 [8-Br-cGMP]
inductive effect of hemin on neuroglobin reproduced by the agent (Ngb protein): mimicked | increase in Ngb protein expression (Ngb protein; 10 μM 8-Br-cGMP, 2-24 h): 2- to 2.5 fold | effect on hypoxic induction of vascular endothelial growth factor [2]: suppress | increase in Ngb mRNA expression (Ngb mRNA; 10 μM 8-Br-cGMP, 2-24 h): 3- to 4 fold

[Cl-].[Cl-].[Co+2] [CoCl2]
Ngb expression (Ngb [3]): increased Ngb expression

CN(C)CCCn1cc(C2=C(c3c[nH]c4ccccc34)C(=O)NC2=O)c2ccccc21 [GF109203X]
effect on induction of Ngb expression by hemin (Western blot) (Ngb protein): no significant effect

COC(=O)[C@@]1(OC)C[C@H]2O[C@]1(C)n1c3ccccc3c3c4c(c5c6ccccc6n2c5c31)C(=O)N(C)C4 [KT5823]
effect on induction of Ngb expression by hemin (Western blot) (Ngb protein): attenuated; also recorded: significantly diminished | effect on hypoxic induction of Ngb (Ngb [4]): not blocked | effect on hemin-induced Ngb expression at the mRNA level (quantitative RT-PCR) (Ngb mRNA): significantly inhibited

O=C1C(Nc2ccccc2)=CC(=O)c2ncccc21 [LY83583]
effect on induction of Ngb expression by hemin (Western blot) (Ngb protein): attenuated; also recorded: significantly diminished | effect on hypoxic induction of Ngb (Ngb [4]): not blocked | effect on hemin-induced Ngb expression at the mRNA level (quantitative RT-PCR) (Ngb mRNA): significantly inhibited

COc1cccc(-c2cc(=O)c3ccccc3o2)c1N [PD98059]
effect on induction of Ngb expression by hemin (Western blot) (Ngb protein): no significant effect | effect on hypoxic induction of Ngb (Ngb [4]): blocked

CN[C@@H]1C[C@H]2O[C@@](C)([C@@H]1OC)n1c3ccccc3c3c4c(c5c6ccccc6n2c5c31)C(=O)NC4 [staurosporine]
Ngb expression (Ngb [3]; cultured cortical neurons treated 24 h, 300 μM CoCl2 (Co2+), 100 μM Dfx, 0.1 μM staurosporine, 500 μM SNP, Western blot): did not increase Ngb expression; also recorded: no change
